Measurements from US20080194585A1, “Fungicidal Pyrazine Derivatives” (priority 2005, published 2008).
Read-outs that look alike come from different tables or passages of the source. Marks after values point to notes of the source that are not given here.

Experiments:
[1] = system: Plasmopara viticola; assay: Test D: grape downy mildew, spray after inoculation of grape seedlings; type: in vivo; conditions: 200 ppm; for pest or weed control at 200 ppm: Plasmopara viticola, 168 h, read-out: Test D disease control rating
Excerpt: Upon removal, disease ratings were made. […] A dash (-) indicates no test results.

[2] = system: Phytophthora infestans; assay: whole plant or invertebrate; type: in vivo; conditions: for Test F disease control rating: 200 ppm; for pest or weed control at 200 ppm: Phytophthora infestans, in Solanum lycopersicum, topical, 144 h, read-out: Test F disease control rating
[3] = system: Septoria tritici; assay: Test J: wheat leaf blotch, preventive spray on wheat seedlings; type: in vivo
Excerpt: A dash (-) indicates no test results.

[4] = system: fusarium graminearium; assay: Test I: wheat head scab, preventive spray on wheat seedlings; conditions: for Test I disease control rating: 200 ppm; for pest or weed control at 200 ppm: Fusarium, in Triticum aestivum, topical, 192 h, read-out: Test I disease control rating, 200 ppm
Method: (the causal agent of wheat head scab) and incubated in a saturated atmosphere at 20° C. for 72 h, and then moved to a growth chamber at 22° C. for 5 days, after which disease ratings were made.

[5] = system: Puccinia recondita f. sp. tritici; assay: Test K: wheat leaf rust, preventive spray on wheat seedlings
[6] = system: Botrytis cinerea; assay: Test E: tomato botrytis, preventive spray on tomato seedlings
[7] = system: Septoria nodorum; assay: Test H: wheat glum blotch, preventive spray on wheat seedlings; conditions: for pest or weed control at 200 ppm: read-out: Test H disease control rating, 200 ppm
Method: (the causal agent of wheat glum blotch) and incubated in a saturated atmosphere at 20° C. for 48 h, and then moved to a growth chamber at 22° C. for 5 days, after which disease ratings were made.

[8] = system: Erysiphe graminis f. sp. tritici; assay: Test L: wheat powdery mildew, preventive spray on wheat seedlings; conditions: for pest or weed control at 200 ppm: read-out: Test L disease control rating, 200 ppm
[9] = system: Sclerotinia sclerotiorum; assay: Test C: cucumber white mold, preventive spray on cucumber seedlings; conditions: for Test C disease control rating: 200 ppm; for pest or weed control at 200 ppm: Sclerotinia sclerotiorum, in Cucumis sativus, 168 h, read-out: Test C disease control rating, 200 ppm
[10] = system: Pythium aphanidermatum; assay: Test A: bluegrass pythium blight, preventive spray on bluegrass seedlings; conditions: for Test A disease control rating: 200 ppm; for pest or weed control at 200 ppm: Pythium aphanidermatum, 120 h, read-out: Test A disease control rating
[11] = system: Rhizoctonia oryzae; assay: Test G: turf brown patch, preventive spray on creeping bent grass seedlings; conditions: for pest or weed control at 200 ppm: read-out: Test G disease control rating, 200 ppm
Method: (the causal agent of turf brown patch) and incubated in a saturated atmosphere at 27° C. for 24 h, and then moved to a growth chamber at 27° C. for 5 days, after which disease ratings were made.

[12] = system: Colletotrichum orbiculare; assay: Test B: cucumber Colletotrichum anthracnose, preventive spray on cucumber seedlings; conditions: for pest or weed control at 200 ppm: read-out: Test B disease control rating, 200 ppm
[13] = 100 = 100% disease control, 0 = no control
[14] = 200 ppm, 100 = 100% disease control, 0 = no control
[15] = Puccinia recondita, in Triticum aestivum, 192 h, read-out: Test K disease control rating
[16] = Botrytis cinerea, in Solanum lycopersicum, topical, 72 h, read-out: Test E disease control rating
[17] = Parastagonospora nodorum, in Triticum aestivum, topical, 168 h
[18] = Blumeria graminis, in Triticum aestivum, 168 h
[19] = Waitea circinata, in Agrostis stolonifera, topical, 144 h
[20] = Colletotrichum orbiculare, in Cucumis sativus, 144 h
[21] = 40 ppm (marked *), 100 = 100% disease control, 0 = no control

| Structure (SMILES) | Test D disease control rating [1, 13] | Test C disease control rating [9, 13] | Test F disease control rating [2] | Test A disease control rating [10] | Test D disease control rating [1] | Test J disease control rating ([3]; 200 ppm) | Test I disease control rating [4] | Test K disease control rating ([5]; 200 ppm) | Test E disease control rating ([6]; 200 ppm) | Test H disease control rating ([7]; 200 ppm) | Test L disease control rating ([8]; 200 ppm) | Test C disease control rating [9] | Test G disease control rating ([11]; 200 ppm) | Test B disease control rating ([12]; 200 ppm) | also measured |
| --- | --- | --- | --- | --- | --- | --- | --- | --- | --- | --- | --- | --- | --- | --- | --- |
| CCC(C)Cn1c(-c2ccc(F)cc2Cl)c(Cl)nc(-n2cc(Br)c(C)n2)c1=O (racemic) [compound 260] | 0% | 0% |  |  |  |  |  |  |  |  |  |  |  |  | Test F disease control rating [2, 13]: 0%; Test J disease control rating [3, 14]: 97%; Test I disease control rating [4, 13]: 0%; Test K disease control rating [5, 14]: 80%; Test E disease control rating [6, 14]: 99%; Test H disease control rating [7, 14]: 0%; Test L disease control rating [8, 14]: 50%; Test A disease control rating [10, 13]: 0%; Test G disease control rating [11, 14]: 0%; Test B disease control rating [12, 14]: 9% |
| CCC(C)Cn1c(-c2ccc(F)cc2Cl)c(Cl)nc(-n2ccc(C(OC)OC)n2)c1=O (racemic) [compound 261] | 40% | 83% |  |  |  |  |  |  |  |  |  |  |  |  | Test F disease control rating [2, 13]: 0%; Test J disease control rating [3, 14]: 100%; Test I disease control rating [4, 13]: 0%; Test K disease control rating [5, 14]: 100%; Test E disease control rating [6, 14]: 100%; Test H disease control rating [7, 14]: 99%; Test L disease control rating [8, 14]: 98%; Test A disease control rating [10, 13]: 0%; Test G disease control rating [11, 14]: 0%; Test B disease control rating [12, 14]: 100% |
| CC(C)Cn1c(-c2c(F)cccc2F)c(Cl)nc(-c2ccccn2)c1=O [Compound 2, 5-Chloro-6-(2,6-difluorophenyl)-1-(2-methylpropyl)-3-(2-pyridinyl)-2(1H)-pyrazinone] |  |  |  |  |  |  |  |  |  |  |  |  |  |  | pest or weed control at 200 ppm [1]: 77%; pest or weed control at 200 ppm [2]: 0%; pest or weed control at 200 ppm ([3]; Zymoseptoria tritici, 528 h, 200 ppm, read-out: Test J disease control rating): 99%; pest or weed control at 200 ppm [4]: 97%; pest or weed control at 200 ppm [5, 15]: 100%; pest or weed control at 200 ppm [6, 16]: 100%; pest or weed control at 200 ppm [7, 17]: 100%; pest or weed control at 200 ppm [8, 18]: 100%; pest or weed control at 200 ppm [9]: 97%; pest or weed control at 200 ppm [10]: 38%; pest or weed control at 200 ppm [11, 19]: 100%; pest or weed control at 200 ppm [12, 20]: 100% |
| CC(C)Cn1c(-c2ccc(F)cc2Cl)c(Cl)nc(-n2cccn2)c1=O [Compound 53, 5-Chloro-6-(2-chloro-4-fluorophenyl)-1-(2-methylpropyl)-3-(1H-pyrazol-1-yl)-2(1H)-pyrazinone] |  |  | 0% | 0% |  |  |  |  |  |  |  |  |  |  | pest or weed control at 200 ppm [1]: 0%; Test J disease control rating ([3]; 40 ppm (*)): 100* %; pest or weed control at 200 ppm [4]: 90%; pest or weed control at 200 ppm [5, 15]: 100%; pest or weed control at 200 ppm [6, 16]: 100%; pest or weed control at 200 ppm [7, 17]: 100%; pest or weed control at 200 ppm [8, 18]: 99%; pest or weed control at 200 ppm [9]: 99%; pest or weed control at 200 ppm [11, 19]: 82%; pest or weed control at 200 ppm [12, 20]: 100% |
| CC(C)Cn1c(-c2ccc(F)cc2Cl)c(Cl)nc(-n2cccn2)c1=O [Compound 302, 5-Chloro-6-(2-chloro-4-fluorophenyl)-1-(2-methylpropyl)-3-(1H-pyrazol-1-yl)-2(1H)-pyrazinone] | 0% | 60% |  |  |  |  |  |  |  |  |  |  |  |  | pest or weed control at 200 ppm [2]: 0%; pest or weed control at 40 ppm ([3]; Zymoseptoria tritici, 528 h, 40 ppm (marked *), 100 = 100% disease control, 0 = no control, read-out: Test J disease control rating): 100%; pest or weed control at 200 ppm [4, 13]: 0%; pest or weed control at 40 ppm [5, 15]: 100%; pest or weed control at 40 ppm [6, 16]: 100%; pest or weed control at 40 ppm ([7]; Parastagonospora nodorum, in Triticum aestivum, topical, 168 h, read-out: Test H disease control rating, 40 ppm (marked *), 100 = 100% disease control, 0 = no control): 99%; pest or weed control at 40 ppm ([8]; Blumeria graminis, in Triticum aestivum, 168 h, read-out: Test L disease control rating, 40 ppm (marked *), 100 = 100% disease control, 0 = no control): 98%; pest or weed control at 200 ppm [10]: 0%; pest or weed control at 40 ppm ([11]; Waitea circinata, in Agrostis stolonifera, topical, 144 h, read-out: Test G disease control rating, 40 ppm (marked *), 100 = 100% disease control, 0 = no control): 94%; pest or weed control at 40 ppm ([12]; Colletotrichum orbiculare, in Cucumis sativus, 144 h, read-out: Test B disease control rating, 40 ppm (marked *), 100 = 100% disease control, 0 = no control): 98% |
| CC(C)Cn1c(-c2ccc(F)cc2Cl)c(Cl)nc(-n2cccn2)c1=O [Compound 303, 5-Chloro-6-(2-chloro-4-fluorophenyl)-1-(2-methylpropyl)-3-(1H-pyrazol-1-yl)-2(1H)-pyrazinone] | 58% | 94% |  |  |  |  |  |  |  |  |  |  |  |  | Test F disease control rating [2, 13]: 0%; Test J disease control rating [3, 21]: 100* %; Test I disease control rating [4, 13]: 0%; Test K disease control rating [5, 21]: 100* %; Test E disease control rating [6, 21]: 100* %; Test H disease control rating [7, 21]: 100* %; Test L disease control rating [8, 21]: 100* %; Test A disease control rating [10, 13]: 0%; Test G disease control rating [11, 21]: 100* %; Test B disease control rating [12, 21]: 100* % |
| CC(C)Cn1c(-c2c(F)cc(F)cc2F)c(Cl)nc(-n2cccn2)c1=O [compound 7] |  |  | 0% | 51% | 88% | 100% | 99% | 100% | 100% | 100% | 100% | 95% | 95% | 100% |  |
| O=c1c(-n2cccn2)nc(Cl)c(-c2c(F)cccc2F)n1CC1CC1 [compound 18] |  |  | 0% | 0% | 98% | 100% | 0% | 100% | 100% | 100% | 100% | 99% | 100% | 100% |  |
| CCC(C)Cn1c(-c2c(F)cc(F)cc2F)c(Cl)nc(-n2cccn2)c1=O (stereo not drawn) [compound 19] |  |  | 27% | 0% | 46% | 100% | 90% | 100% | 100% | 100% | 100% | 98% | 100% | 100% |  |
| CC(C)Cn1c(-c2ccc(Cl)cc2)c(Cl)nc(-n2cncn2)c1=O [compound 23] |  |  | 0% | 0% | 0% | 98% | 68% | 68% | 99% | 98% | 0% | 0% | 33% | 21% |  |
| Cc1nc(C)n(-c2nc(Cl)c(-c3ccc(Cl)cc3)n(CC(C)C)c2=O)n1 [compound 24] |  |  | 0% | 0% | 5% | 80% | 0% | 0% | 0% | 0% | 0% | 0% | 0% | 0% |  |
| CC(C)Cn1c(-c2c(Cl)cccc2Cl)c(Cl)nc(-n2cccn2)c1=O [compound 43] |  |  | 0% | 0% | 0% |  | 0% | 100% | 100% | 100% | 96% | 94% | 92% | 99% | Test J disease control rating ([3]; 40 ppm (*)): 100* % |
| CC(C)Cn1c(-c2ccc(Cl)cc2F)c(Cl)nc(-n2cccn2)c1=O [compound 45] |  |  | 0% | 0% | 0% |  | 82% | 100% | 100% | 100% | 85% | 85% | 26% | 100% | Test J disease control rating ([3]; 40 ppm (*)): 100* % |
